Laboratory results: the supplement of paper PMC10307832

Legend:
Assay in all cases: relative viability (nuclei count vs DMSO), 5 days (fraction); higher = more cells survive
[1] = compound: COCC[n+]1c2c(n(Cc3cnccn3)c1C)C(=O)c1ccccc1C2=O [YM155] + CS(=O)(=O)CCNCc1ccc(-c2ccc3ncnc(Nc4ccc(OCc5cccc(F)c5)c(Cl)c4)c3c2)o1 [Lapatinib] (partner 2 µM)
Summary of the method: (§1)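 Each reported value is a median over duplicate plates. It expresses relative viability: treated-well nuclei count divided by vehicle-well nuclei count. Lung cancer cell lines in 1536-well plates were dosed by pin tool a day after seeding, alone with one drug or with a fixed anchor-drug dose plus five library-drug doses (not always all listed) in √10 steps, and nuclei were counted after 5 days.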

[2] = compound: CC(C)(C)c1cc(NC(=O)Nc2ccc(-c3cn4c(n3)sc3cc(OCCN5CCOCC5)ccc34)cc2)no1 [Quizartinib] + N=C(N)NC(=N)NCCc1ccccc1 [Phenformin] (partner 250 µM)
Summary of the method: as §1

[3] = compound: COCC[n+]1c2c(n(Cc3cnccn3)c1C)C(=O)c1ccccc1C2=O [YM155] + CC(C)C[C@H](NC(=O)[C@H](Cc1ccccc1)NC(=O)c1cnccn1)B(O)O [Bortezomib] (partner 0.002 µM)
Summary of the method: as §1

[4] = compound: CC(C)(C)c1cc(NC(=O)Nc2ccc(-c3cn4c(n3)sc3cc(OCCN5CCOCC5)ccc34)cc2)no1 [Quizartinib] + Cc1cc(Nc2cc(N3CCN(C)CC3)nc(Sc3ccc(NC(=O)C4CC4)cc3)n2)n[nH]1 [Tozasertib] (partner 0.1 µM)
Summary of the method: as §1

Cell Line | relative viability ([1]; first compound 0.002 µM) | relative viability ([1]; first compound 0.006325 µM) | relative viability ([1]; first compound 0.02 µM) | relative viability ([1]; first compound 0.06325 µM) | relative viability ([2]; first compound 0.001 µM) | relative viability ([2]; first compound 0.003162 µM) | relative viability ([2]; first compound 0.01 µM) | relative viability ([2]; first compound 0.03162 µM) | relative viability ([2]; first compound 0.1 µM) | relative viability ([3]; first compound 0.002 µM) | relative viability ([3]; first compound 0.006325 µM) | relative viability ([3]; first compound 0.02 µM) | relative viability ([3]; first compound 0.06325 µM) | relative viability ([4]; first compound 0.001 µM) | relative viability ([4]; first compound 0.003162 µM) | relative viability ([4]; first compound 0.01 µM) | relative viability ([4]; first compound 0.03162 µM) | relative viability ([4]; first compound 0.1 µM)
PC-14 | 0.306 | 0.295 | 0.297 | 0.355 | 0.493 | 0.698 | 0.571 | 0.394 | 0.978 | 0.905 | 0.861 | 0.93 | 0.771 | 0.555 | 0.551 | 0.584 | 0.556 | 0.558
NCI-H2405 | 1.03 | 0.816 | 0.786 | 0.34 | 0.42 | 0.414 | 0.402 | 0.407 | 0.383 | 0.951 | 1.01 | 0.971 | 0.701 | 0.742 | 0.722 | 0.726 | 0.738 | 0.68
NCI-H2009 | 0.888 | 0.893 | 0.946 | 0.119 | 0.464 | 0.48 | 0.504 | 0.44 | 0.174 | 0.944 | 1.02 | 1.04 | 0.923 | 0.692 | 0.695 | 0.628 | 0.653 | 0.506
EPLC-272H | 1.05 | 0.854 | 0.941 | 0.949 | 0.215 | 0.342 | 0.427 | 0.3 | 0.207 | 0.846 | 1.04 | 0.875 | 0.862 | 0.226 | 0.208 | 0.246 | 0.33 | 0.297
NCI-H1650 | 0.674 | 0.787 | 0.988 | 0.488 | 0.418 | 0.585 | 0.382 |  | 0.417 | 0.216 | 0.23 | 0.221 | 0.19 | 0.42 | 0.366 | 0.369 |  | 0.238
SW 1573 | 1.1 | 1.01 | 1.21 | 0.858 | 0.355 | 0.369 | 0.397 |  | 0.367 | 0.95 | 0.946 | 0.954 | 0.568 | 0.163 | 0.175 | 0.225 |  | 0.265
NCI-H2087 | 1.26 | 1.01 | 1.12 | 0.708 |  | 0.429 | 0.458 | 0.369 | 0.516 | 0.872 | 0.76 | 0.867 | 0.783 |  | 0.226 | 0.233 | 0.189 | 0.262
HCC-15 | 0.802 | 0.911 | 0.868 | 0.69 |  | 0.461 | 0.396 |  | 0.436 | 0.939 | 1.02 | 0.965 | 0.953 |  | 0.429 | 0.602 | 0.29 | 0.2
NCI-H1915 | 0.968 | 0.946 | 0.918 | 0.784 | 0.345 | 0.374 | 0.408 | 0.353 | 0.38 | 0.945 | 0.972 | 0.957 | 0.918 | 0.419 | 0.427 | 0.42 | 0.401 | 0.389
